From US20250223306A1, “TEAD INHIBITORS AND METHODS OF USE” (Sporos BioDiscovery, Inc., priority 2022, published 2025)
pIC50: −log10 of the molar value.

What was measured:
[1] = system: NCI-H226 cells; assay: Proliferation, Cell Titer One assay; type: cell-based; conditions: 6 days
Description: (§1) Cell proliferation of a TEAD dependent NF2-null mesothelioma cell line, NCI-H226, and a TEAD-non-dependent mesothelioma cell line, NCI-H28 was assayed using two different protocols: • a) CellTiter-Glo 2.0 (Promega #G9243). The effect of the TEAD inhibitors disclosed herein on cell proliferation was determined in TEAD1-genetically dependent cell line NCI-H226 (responder cell line) and TEAD-independent cell lines (NCI-H23, HEK293T), as non-responder, negative control. Cells were seeded in 96-well plates (Thermo Scientific #167008) in growth media (RPMI-1640, Gibco #61870-010) for NCI-H226 and NCI-H23 or DMEM (Gibco #31966-021, HEK293T) with 10% Heat Inactivated Fetal Bovine Serum (Gibco 10500-064) at 800 (NCI-H226 and HEK-293T) or 2000 (NCI-H23) cells per well at 37° C., 5% CO2, humidified incubator; 24 hours later, fresh growth media containing test compound or DMSO vehicle was added and incubated with the cells for 144 hrs. TEAD inhibitor stocks were made at a 1000× fold excess in DMSO, and a dose response test compound dose range of 10,000 to 0.1 nM was used. Each treatment was carried out in triplicate. After 144 hrs of treatment, relative cell viability numbers were determined using the CellTiter-Glo 2.0 assay following the manufacturer's instructions. Test plates and CellTiter-Glo 2.0 reagent were allowed to equilibrate to room temperature. CellTiter-Glo 2.0 reagent was added at 1:1 reagent to media ratio to the 96-well cell plates, plates were placed on a plate shaker for 2 minutes and then incubated at room temperature for a further 10 minutes to allow complete cell lysis to occur. The mix was then transferred to white, 96-well luminometer assay plates (Greiner Bio One #655075). Luminescence was quantified using a CLARIOStar Plus multi-mode plate reader (BMG Labtech) in luminescence detection mode with the recommended settings (ultra-Glo pre-set: emission 545-50 nm with autofocus and enhanced dynamic range on). Relative cell density was expressed as a function of inhibitor concentration, with respect to DMSO-only control wells. Data where plotted using GraphPad Prism and IC50 values for the biological effect were calculated using the EC50 non-linear fit function using a sigmoidal, 4-parameter logistic, least squares fit with no constraints. • b) Cell Titer One (Promega, #G3582). The effect of the TEAD inhibitors disclosed herein on cell proliferation was also determined using the Promega Substrate Cell Titer Aqueous One Solution Reagent. The TEAD inhibitors were evaluated for the effects on cell proliferation responder (H226) and non-responder negative control cancer cell lines (CAMA1, H28), as well as non-transformed normal human cells (HUVEC, NHDF). Dissociated cells were resuspend in media (depending on cell line, either in DMEM, RPMI, or EMEM all with 10% FBS, with gentamicin as an antibiotic). Cells were seeded at 100 μL/well at 750 cells per well in 96-well plates and allowed to settle and attach. After an incubation of 24 hrs (37° C., 5% CO2, humidified incubator), 100 μL of test compound-containing media was added. A dilution series of 2000× concentrated stock of test compounds was prepared in DMSO, for final concentrations from 0.1 to 10,000 nM. After addition of test compound-containing media, cells were incubated for 6 days at 37° C., 5% CO2, humidified incubators). To measure cell density, 20 μL of Promega Substrate Cell Titer 96 Aqueous One Solution Reagent (Promega, #G3582) to each well was added according to the manufacturer's instructions. Plates were incubated at 37° C. for usually 3-8 hrs, to reach in the control cells (without compound) an OD of 1.5 at 490 nm. The OD was measured using Vmax [Molecular Devices] spectrophotometer plate reader. Media only-wells were used as background controls and cell densities normalized to DMSO vehicle control. ECs were taken as the concentration achieving 50% of maximal growth inhibition.

[2] = system: NCI-H226 cells; assay: Proliferation and cell viability, CellTiter-Glo 2.0 (CTG) assay; type: cell-based; conditions: 144 hrs
Description: as §1

[3] = system: NCI-H23 cells; assay: as above; type: cell-based; conditions: 144 hrs
Description: as §1

[4] = target: TEAD3 (Homo sapiens, UniProt Q99594); assay: TEAD thermal shift assay (TSA); type: binding
TEAD3, sequence (Q99594 whole entry): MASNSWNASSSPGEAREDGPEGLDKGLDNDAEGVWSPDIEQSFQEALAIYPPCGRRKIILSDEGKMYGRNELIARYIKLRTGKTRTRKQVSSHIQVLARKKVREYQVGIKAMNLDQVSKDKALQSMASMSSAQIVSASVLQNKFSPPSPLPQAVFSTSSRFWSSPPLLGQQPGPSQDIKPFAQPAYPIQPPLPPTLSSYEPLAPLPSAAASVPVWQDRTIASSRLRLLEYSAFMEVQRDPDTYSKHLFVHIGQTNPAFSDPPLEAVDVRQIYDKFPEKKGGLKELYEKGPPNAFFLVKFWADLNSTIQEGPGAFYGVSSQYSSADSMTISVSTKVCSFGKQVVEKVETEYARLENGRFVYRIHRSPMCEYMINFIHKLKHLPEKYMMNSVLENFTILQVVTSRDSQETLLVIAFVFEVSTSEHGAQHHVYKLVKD
Text: (§2) Thermal shift assay (TSA) is a biophysical method to evaluate stability of proteins with change in temperature. The assay measures thermal denaturation temperature in varying conditions such as different drug concentration. For this example, fluorogenic dye was used that bind to unfolded proteins. SYPRO Orange binds non-specifically to hydrophobic surfaces, and water strongly quenches its fluorescence. When the protein unfolds, the exposed hydrophobic surfaces bind the dye, resulting in an increase in fluorescence by excluding water. Detergent micelles also bind the dye and increase background noise dramatically. Binding of small molecules to proteins leads to a stabilization against to thermal denaturation with the degree of thermal stabilization proportional to the strength of binding.
(§3) The study described in this example investigated the change in melting temperature (ΔTm) of TEAD isoforms 1˜4 when treated with TEAD inhibitors. Compound 1-1-a known strong TEAD1 and weak TEAD2 inhibitor; as well as Compound 1-4-a pan-TEAD inhibitor were used as controls.
(§4) Tris-HCL was dissolved in 5 mL of Cell culture grade water and allowed to dissolve completely. The pH was adjusted to 8 using NaOH. Additional assay buffer components were added in the order listed above. The buffer was mixed slowly.
(§5) Assay buffer was prepared according to the procedures outlined above and dispensed into test wells. Spyro orange was added to a concentration of 5× in the assay buffer, followed by test compound stock solution which was added to a concentration of 10 μM or 30 μM in the assay buffer.
(§6) The melt cycle was performed in Bio-RAD PCR instrument from 20-95° C. with ramp rate of 1° C./min.

[5] = target: TEAD2 (Homo sapiens, UniProt Q15562); assay: TEAD thermal shift assay (TSA); type: binding
TEAD2, sequence (Q15562 whole entry): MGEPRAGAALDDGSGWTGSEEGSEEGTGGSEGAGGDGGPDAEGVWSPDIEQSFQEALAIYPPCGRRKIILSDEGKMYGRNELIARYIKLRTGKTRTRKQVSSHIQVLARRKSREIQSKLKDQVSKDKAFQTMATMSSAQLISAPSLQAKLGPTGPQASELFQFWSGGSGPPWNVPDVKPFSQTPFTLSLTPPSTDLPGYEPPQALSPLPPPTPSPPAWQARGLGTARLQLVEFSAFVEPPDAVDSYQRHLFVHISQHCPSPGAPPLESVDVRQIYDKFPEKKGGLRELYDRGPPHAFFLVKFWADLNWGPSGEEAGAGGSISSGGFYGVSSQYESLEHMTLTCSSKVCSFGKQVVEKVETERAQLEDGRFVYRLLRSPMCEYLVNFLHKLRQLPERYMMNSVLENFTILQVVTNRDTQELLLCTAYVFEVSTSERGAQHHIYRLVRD
Text: as §2, §3, §4, §5, §6

[6] = target: TEAD4 (Homo sapiens, UniProt Q15561); assay: TEAD thermal shift assay (TSA); type: binding
TEAD4, sequence (Q15561 whole entry): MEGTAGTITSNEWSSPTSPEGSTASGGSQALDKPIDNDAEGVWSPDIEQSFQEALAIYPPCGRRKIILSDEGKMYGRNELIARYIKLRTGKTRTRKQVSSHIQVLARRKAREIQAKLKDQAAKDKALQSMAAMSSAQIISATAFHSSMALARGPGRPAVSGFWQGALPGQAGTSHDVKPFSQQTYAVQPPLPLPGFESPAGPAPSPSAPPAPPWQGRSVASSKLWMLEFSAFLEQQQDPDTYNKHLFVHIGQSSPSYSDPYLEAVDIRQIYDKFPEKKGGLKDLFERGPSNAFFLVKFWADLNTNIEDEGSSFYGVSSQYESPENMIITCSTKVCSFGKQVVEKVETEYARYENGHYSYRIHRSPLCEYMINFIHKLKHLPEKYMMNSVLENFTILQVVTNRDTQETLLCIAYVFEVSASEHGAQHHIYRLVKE
Text: as §2, §3, §4, §5, §6

[7] = target: TEAD1 (Homo sapiens, UniProt P28347); assay: TEAD thermal shift assay (TSA); type: binding
TEAD1, sequence (P28347 whole entry): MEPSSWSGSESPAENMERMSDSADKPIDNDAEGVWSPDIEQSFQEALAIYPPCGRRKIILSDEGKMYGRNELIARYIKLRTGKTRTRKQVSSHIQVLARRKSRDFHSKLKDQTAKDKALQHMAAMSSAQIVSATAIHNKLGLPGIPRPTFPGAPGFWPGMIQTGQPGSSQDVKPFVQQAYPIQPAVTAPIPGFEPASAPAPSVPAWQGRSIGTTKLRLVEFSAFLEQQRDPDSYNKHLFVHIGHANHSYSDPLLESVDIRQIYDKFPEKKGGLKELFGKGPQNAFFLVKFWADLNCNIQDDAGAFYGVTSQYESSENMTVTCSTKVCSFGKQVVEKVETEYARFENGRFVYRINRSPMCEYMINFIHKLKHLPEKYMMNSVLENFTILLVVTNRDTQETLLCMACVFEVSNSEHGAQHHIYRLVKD
Text: as §2, §3, §4, §5, §6

[8] = Homo sapiens, NCI-H226, 144 h, H226-responder cell line
[9] = Homo sapiens, NCI-H23, H23-non-responder cell line
[10] = ratio of protein to compound 1:1
[11] = ratio of protein to compound 1:3

SMILES | pIC50 ([1]; Homo sapiens, NCI-H226, 144 h) | pIC50 [2, 8] | also measured
O=C(NCc1ncco1)c1cnc2c(C3=CCC(C(F)(F)F)CC3)cccc2c1 (single isomer, unassigned) [Compound 12, N-(oxazol-2-ylmethyl)-8-(4-(trifluoromethyl)cyclohex-1-en-1-yl)quinoline-3-carboxamide] | 6.00 to 6.70 | > 6.70 | pIC50 [3, 9]: < 6.00
CC(C)NC(=O)c1cnc2c(C3=CCC(C)(C)CC3)cccc2c1 [Compound 30, 8-(4,4-dimethylcyclohex-1-en-1-yl)-N-isopropylquinoline-3-carboxamide] | > 6.70 | > 6.70 | –
C[C@H](NC(=O)c1cnc2c(C3=CCCCC3)cccc2c1)c1ccccn1 [Compound 35, (S)-8-(cyclohex-1-en-1-yl)-N-(1-(pyridin-2-yl)ethyl)quinoline-3-carboxamide] | 6.00 to 6.70 | – | –
O=C(NCc1ncco1)c1cnc2c(C3=CCC(F)(F)CC3)cccc2c1 [Compound 29, 8-(4,4-difluorocyclohex-1-en-1-yl)-N-(oxazol-2-ylmethyl)quinoline-3-carboxamide] | < 6.00 | 6.00 to 6.70 | –
CC(C)NC(=O)c1cnc2c(C3=CCC(F)(F)CC3)cccc2c1 [Compound 26, 8-(4,4-difluorocyclohex-1-en-1-yl)-N-isopropylquinoline-3-carboxamide] | > 6.70 | – | pIC50 ([2]; Homo sapiens, NCI-H226, H226-responder cell line): > 6.70
COCCNC(=O)c1cnc2c(C3=CCC(C(F)(F)F)CC3)cccc2c1 (stereo not shown) [Compound 40, N-(2-methoxyethyl)-8-(4-(trifluoromethyl)cyclohex-1-en-1-yl)quinoline-3-carboxamide] | 6.00 to 6.70 | > 6.70 | –
O=C(NCCO)c1cnc2c(C3=CCC(C(F)(F)F)CC3)cccc2c1 (stereo not shown) [Compound 39, N-(2-hydroxyethyl)-8-(4-(trifluoromethyl)cyclohex-1-en-1-yl)quinoline-3-carboxamide] | > 6.70 | > 6.70 | –
O=C(NCc1ncco1)c1cnc2c(C3=CCC(C(F)(F)F)CC3)cccc2c1 (single isomer, unassigned) [Compound 13, N-(oxazol-2-ylmethyl)-8-(4-(trifluoromethyl)cyclohex-1-en-1-yl)quinoline-3-carboxamide] | – | – | pIC50 [1]: > 6.70; pIC50 ([2]; H226-responder cell line): > 6.70; pIC50 ([3]; H23-non-responder cell line): < 6.00
C[C@H](NC(=O)c1cnc2c(C3=CCC(C)(C)CC3)cccc2c1)c1ccccn1 [Compound 31, (S)-8-(4,4-dimethylcyclohex-1-en-1-yl)-N-(1-(pyridin-2-yl)ethyl)quinoline-3-carboxamide] | < 6.00 | > 6.70 | –
C[C@H](NC(=O)c1ccc2c(-c3ccc(C(F)(F)F)cc3)cccc2c1)c1cccc(N)n1 [Compound 1-4, reference compound] | – | – | TEAD3 ΔTm [4, 10]: 5 °C; TEAD3 ΔTm [4, 11]: 9 °C; TEAD2 ΔTm [5, 10]: 5 °C; TEAD2 ΔTm [5, 11]: 7 °C; TEAD4 ΔTm [6, 10]: 5 °C; TEAD4 ΔTm [6, 11]: 9 °C; TEAD1 ΔTm [7, 10]: 10 °C; TEAD1 ΔTm [7, 11]: 12 °C; thermal shift / binding across TEAD isoforms, in words ([7]; summary of Table 14 over TEAD1-4): thermal shifts for all four TEAD isoforms

Further lines, with some results ahead:

pIC50 ([1]; Homo sapiens, NCI-H226, 144 h) | pIC50 [2, 8] | SMILES | also measured
6.00 to 6.70 | > 6.70 | CNC(=O)c1cnc2c(C3=CCC(C(F)(F)F)CC3)cccc2c1 (stereo not shown) [Compound 38, N-methyl-8-(4-(trifluoromethyl)cyclohex-1-en-1-yl)quinoline-3-carboxamide] | –
> 6.70 | > 6.70 | C[C@H](NC(=O)c1cnc2c(C3=CCC(F)(F)CC3)cccc2c1)c1ccccn1 [Compound 27, (S)-8-(4,4-difluorocyclohex-1-en-1-yl)-N-(1-(pyridin-2-yl)ethyl)quinoline-3-carboxamide] | –
< 6.00 | – | O=C(NCc1ncco1)c1cnc2c(C3=CCCCC3)cccc2c1 [Compound 37, 8-(cyclohex-1-en-1-yl)-N-(oxazol-2-ylmethyl)quinoline-3-carboxamide] | –
< 6.00 | – | C[C@@H](CO)NC(=O)c1cnc2c(C3=CCCCC3)cccc2c1 [Compound 36, (S)-8-(cyclohex-1-en-1-yl)-N-(1-hydroxypropan-2-yl)quinoline-3-carboxamide] | –
> 6.70 | > 6.70 | O=C(NCc1ccccn1)c1cnc2c(C3=CCC(C(F)(F)F)CC3)cccc2c1 (stereo not shown) [Compound 5, N-(pyridin-2-ylmethyl)-8-(4-(trifluoromethyl)cyclohex-1-en-1-yl)quinoline-3-carboxamide] | pIC50 [3, 9]: < 6.00
